Measured values reported in ChEMBL document CHEMBL3046294, “Fungicidal properties of the essential oil of Hesperozygis marifolia on Aspergillus flavus link” (2011).
Calls of active or inactive are those of the source. The calls are words filed in the database; no cut-off is given here.

Experiments:
Aspergillus flavus [1] = assay: Antifungal activity against Aspergillus flavus assessed as inhibition of mycelial growth measured after 72 hr at 28 +/- 1 degC; assay type: functional, organism-based
[2] = tested on: Frankliniella occidentalis; assay: Insecticidal activity against Frankliniella occidentalis (western flower thrips) assessed as mortality at 1 ul/45mL; assay type: functional
Aspergillus flavus [3] = assay: Antifungal activity against Aspergillus flavus assessed as inhibition of mycelial growth measured after 72 hr at 0.8 mg/mL at 28 +/- 1 degC; assay type: functional, organism-based

SMILES | inhibition (Aspergillus flavus [1]) | mortality [2] [%] | inhibition (Aspergillus flavus [3])
CC(C)[C@H]1CC[C@@H](C)CC1=O (relative stereo) | inactive |  | 
CC(C)[C@H]1CC[C@H](C)CC1=O (relative stereo) | inactive |  | 
CC(C)=C1CC[C@@H](C)CC1=O [PULEGONE] |  | 100 | Active
